Calls of active or inactive are those of the source. No cut-off for these calls is given here. Where a SMILES comes first, the peptide text is derived from it. Bridges are numbered along the chain shown (N, C = ends).
How the values were obtained:
[1] = target: Secretin receptor (Homo sapiens) (UniProt P47872); experiment: Agonist activity at secretin receptor expressed in CHO cells assessed as increase of cAMP level at 1 uM; assay type: functional, cell-based
[2] = target: Secretin receptor (Homo sapiens) (UniProt P47872); experiment: Displacement of [125I]-secretin-27 from secretin receptor expressed in CHO cells at 1 uM by gamma-spectrometer analysis; assay type: cell-based

Sequence of Secretin receptor (Homo sapiens) (P47872 whole entry): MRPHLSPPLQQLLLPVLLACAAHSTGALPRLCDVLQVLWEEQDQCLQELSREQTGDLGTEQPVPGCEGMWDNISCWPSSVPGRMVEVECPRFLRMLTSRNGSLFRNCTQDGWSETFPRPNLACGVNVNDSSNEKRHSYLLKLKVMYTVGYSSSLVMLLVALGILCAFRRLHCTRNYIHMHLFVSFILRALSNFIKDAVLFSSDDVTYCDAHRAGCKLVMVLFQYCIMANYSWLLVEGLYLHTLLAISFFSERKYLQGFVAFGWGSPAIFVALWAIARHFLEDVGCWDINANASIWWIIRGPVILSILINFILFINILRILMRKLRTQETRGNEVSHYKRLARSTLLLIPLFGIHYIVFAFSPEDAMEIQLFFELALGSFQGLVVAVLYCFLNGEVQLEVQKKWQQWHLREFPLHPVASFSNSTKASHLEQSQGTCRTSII

CC(C)C[C@H](NC(=O)CNC(=O)[C@H](CCC(N)=O)NC(=O)[C@H](CC(C)C)NC(=O)[C@H](CC(C)C)NC(=O)[C@H](CCCNC(=N)N)NC(=O)[C@H](CCC(N)=O)NC(=O)[C@H](CC(C)C)NC(=O)[C@H](CCCNC(=N)N)NC(=O)[C@H](C)NC(=O)[C@H](CO)NC(=O)[C@H](CC(=O)O)NC(=O)[C@H](CCC(N)=O)NC(=O)[C@H](CC(C)C)NC(=O)[C@H](CCCNC(=N)N)NC(=O)[C@H](CO)NC(=O)[C@H](Cc1ccc(O)cc1)NC(=O)[C@H](CCC(=O)O)NC(=O)[C@H](CO)NC(=O)[C@@H](NC(=O)[C@H](Cc1ccccc1)NC(=O)[C@@H]1CSSC[C@H](NC(=O)[C@H](CO)NC(=O)[C@@H](N)Cc2cnc[nH]2)C(=O)NCC(=O)N1)[C@@H](C)O)C(=O)N[C@H](C(N)=O)C(C)C (H-HSCGCFTSEYSRLQDSARLQRLLQGLV-NH2; disulfide 3-5)
Activity [1]: Active
Activity [2]: Active

CC(C)C[C@H](NC(=O)CNC(=O)[C@H](CCC(N)=O)NC(=O)[C@H](CC(C)C)NC(=O)[C@H](CC(C)C)NC(=O)[C@H](CCCNC(=N)N)NC(=O)[C@H](CCC(N)=O)NC(=O)[C@H](CC(C)C)NC(=O)[C@H](CCCNC(=N)N)NC(=O)[C@H](C)NC(=O)[C@H](CO)NC(=O)[C@H](CC(=O)O)NC(=O)[C@H](CCC(N)=O)NC(=O)[C@H](CC(C)C)NC(=O)[C@H](CCCNC(=N)N)NC(=O)[C@H](CO)NC(=O)[C@H](Cc1ccc(O)cc1)NC(=O)[C@H](CCC(=O)O)NC(=O)[C@H](CO)NC(=O)[C@@H]1CSSC[C@H](NC(=O)[C@H](CC(=O)O)NC(=O)[C@H](CO)NC(=O)[C@@H](N)Cc2cnc[nH]2)C(=O)N[C@@H]([C@@H](C)O)C(=O)N[C@@H](Cc2ccccc2)C(=O)N1)C(=O)N[C@H](C(N)=O)C(C)C (H-HSDCTFCSEYSRLQDSARLQRLLQGLV-NH2; disulfide 4-7)
Activity [1]: Active
Activity [2]: Active

CC(C)C[C@H](NC(=O)CNC(=O)[C@H](CCC(N)=O)NC(=O)[C@H](CC(C)C)NC(=O)[C@H](CC(C)C)NC(=O)[C@H](CCCNC(=N)N)NC(=O)[C@H](CCC(N)=O)NC(=O)[C@H](CC(C)C)NC(=O)[C@H](CCCNC(=N)N)NC(=O)[C@H](C)NC(=O)[C@H](CO)NC(=O)[C@H](CC(=O)O)NC(=O)[C@H](CCC(N)=O)NC(=O)[C@H](CC(C)C)NC(=O)[C@H](CCCNC(=N)N)NC(=O)[C@H](CO)NC(=O)[C@H](Cc1ccc(O)cc1)NC(=O)[C@@H]1CSSC[C@H](NC(=O)[C@H](Cc2ccccc2)NC(=O)[C@@H](NC(=O)CNC(=O)[C@H](CC(=O)O)NC(=O)[C@H](CO)NC(=O)[C@@H](N)Cc2cnc[nH]2)[C@@H](C)O)C(=O)N[C@@H](CO)C(=O)N1)C(=O)N[C@H](C(N)=O)C(C)C (H-HSDGTFCSCYSRLQDSARLQRLLQGLV-NH2; disulfide 7-9)
Activity [1]: Active
